# Results published in patent publication US10428030B2, “Heterocycle derivatives and their use for the treatment of CNS disorders” (Trillium Therapeutics Inc., priority 2015, dated 2019).
# Columns and labels:
# [1] = tested on: mice; test: Intravenous Metrazol Seizure Threshold Test (i.v. MET); assay type: in vivo; settings: mouse, ip, i.v. Metrazol infusion (FIG. 1)
# Protocol: The iv-Met test provides a measure of a test substance's ability to raise or lower seizure threshold. Two doses of the test compound are usually employed in this test, the MES ED50 and the TD50 determined following ip quantification testing in mice. Randomly selected mice are injected intraperitoneally 2 minutes apart with either the vehicle or the two test drug doses, maintaining the same order of dosing until 30 mice have been injected. At the previously determined TPE, 0.5% heparinized Metrazol solution is infused at a constant rate of 0.34 ml/min into a lateral tail vein of an unrestrained mouse. Infusion is by means of a Sage syringe pump (model 341 A) and a 10 ml B-D plastic syringe connected to a length of No 20 P.E. tubing. A 27 gauge stainless steel needle with the hub removed is connected to the tubing and inserted into a vein, bevel side up and secured to the tail by a narrow piece of adhesive tape. For the placement of the needle, the mouse is restrained in a cone shaped device with only the tail exposed. The rate selector is set on 4, and the switch is set at ml/min. […] The time in seconds from the start of the infusion to the appearance of the “first twitch” and the onset of sustained clonus is recorded. […]
# The mean and standard error for each of the 3 groups and the significance of the difference between the test groups and the control are calculated.
# [2] = tested on: Male Sprague-Dawley rats; test: Maximal Electroshock Seizure (MES) rat model; assay type: in vivo; settings: po, 4 hours
# Protocol: Male, Sprague-Dawley rats and CD-1 mice were used for all studies. All animals were allowed ad-lib access to food and water except during experiment. Animals were housed within an animal vivarium maintained under a 12 h light:dark cycle (lights on: 07:00 h), and all experiments were conducted in the animals light phase. For all experiments, animals were habituated to the vivarium for a minimum of 72 h before experimentation. The experimental procedures used in the present investigation were conducted under the Association for Assessment and Accreditation of Laboratory Animal Care (AAALAC) and the Canadian Council on Animal Care (CCAC) guidelines.
# All compounds were sonicated in 5% Tween 80® in saline or methylcellulose 0.5% (wgt/vol), using MC and sterile water and injected in a dose volume of 5 ml/kg or 10 ml/kg (rat), and 10 ml/kg (mouse). Drugs were administered by either the oral, intraperitoneal or intravenous route.
# Male Sprague-Dawley rats of body weight 80-100 g were used for these studies. Each experiment was conducted over 3 consecutive days. On day 1 and 2, each rat received a single electrical stimulus (150 mA, 0.2 s duration, 60 Hz) via corneal electrodes moistened with saline (Shock stimulator type 221: Harvard apparatus). […] Typically this reflected approximately 70-90% of the initial group.
# On the test day following a defined drug pretreatment period, rats received a maximal electroshock (150 mA, 0.2 s duration, 60 Hz) via corneal electrodes. Protection was defined as absence of a full tonic seizure within 10 s of stimulus delivery. Twenty minutes before the MES procedure, the animals were tested on a fixed speed rotorod (best score from 3 trials at 8 r.p.m, trial duration=60 s) to give an early assessment of drug effect on gross motor function.
# [3] = Rotorod (ip), mouse; settings: in vivo, mice
# [4] = tested on: amygdala kindled rat; test: Amygdala kindled rat model (focal seizures); assay type: in vivo; settings: <100 mg/kg i.p., vs vehicle controls
# Description: Amygdala kindling model is an animal model for complex partial seizures, which is the most common type of epilepsy in adults and is often drug resistant. Exemplary compounds of the application were effective in this model.
# [5] = tested on: corneal kindled mice; test: Corneal kindling mouse model (focal seizures); assay type: in vivo
# Description: Mice are kindled electrically with 3 sec stimulation, 8 mA, 60 Hz, and coneal electrodes to a criterion of 10 consecutive Stage 5 seizures (facial clonus and head nodding progressing to forelimb clonus, and finally rearing and falling accompanied by a generalized clonic seizure as described by Racine (Racine R J. Neurophysiol., 1972. 32: p. 281-294) Stage 5 is generally reached after twice daily stimulation for 8 days. With continued stimulation once a day, animals usually progress to a reproducible Stage 5 after 10-14 additional days. At least 72 hours after the mice have been kindled, the test substance is administered either i.p. or p.o. and, at the previously determined TPE, each animal is given the electrical stimulus indicated above. Following stimulation, the animals are observed for the presence or absence of the rearing and falling criteria of a Stage 5 seizure. Treated animals not displaying a Stage 3, 4, or 5 seizure are considered protected. The dose of the test substance is varied between the limits of 0 and 100% efficacy, and the ED50 and 95% confidence intervals calculated by probit analysis. Mean values and the S.E.M. are calculated for the length of clonus and seizure duration and p values are determined by the Student's t-test.
compound,measurement,setting,value
O=C1COc2cc(OCc3ccc(OC(F)F)cc3)ccc2N1 [Compound I(B)],effect on seizure threshold,[1],dose-dependently increased the seizure threshold
same,ED50,[2],20.1 ± 0.7 mg/kg
same,ED50 at 0.5 hours,[3],> 500 mg/kg
same,suppression of fully kindled (stage 5) seizures,[4],dose related suppression of fully kindled (stage 5) seizures
same,ED50,"[5]; Mus musculus, corneal kindled mice, read-out: ED50, suppression of fully kindled (stage 5) seizures",119 ± 1.81 mg/kg
same,Average Seizure,[5]; dose 35 mg/kg,5
same,N/F (number of animals active over the number tested),[5]; dose 35 mg/kg,0/8
same,Average Seizure,[5]; dose 70 mg/kg,4.6
same,N/F (number of animals active over the number tested),[5]; dose 70 mg/kg,1/8
same,Average Seizure,[5]; dose 140 mg/kg,2.4
same,N/F (number of animals active over the number tested),[5]; dose 140 mg/kg,5/8
same,Average Seizure,[5]; dose 300 mg/kg,0.8
same,N/F (number of animals active over the number tested),[5]; dose 300 mg/kg,8/8
same,effect on fully kindled (stage 5) seizures,[5]; vs vehicle controls,dose related suppression of fully kindled (stage 5) seizures
